According to PMC6009881, “New sulfurated derivatives of cinnamic acids and rosmaricine as inhibitors of STAT3 and NF-κB transcription factors” (Journal of Enzyme Inhibition and Medicinal Chemistry, 2017):
Structures can show the parent of a compound that is named as a salt.

What was measured:
[1] = target: STAT3-SH2 domain (Homo sapiens, UniProt P40763); test: STAT AlphaScreen-based assay (STAT3); type: binding; details: for IC50: read-out: STAT3 IC50 ±SD; for inhibition at 30 µM: read-out: STAT3 % inhibition ± SD at 30 μM
Sequence of STAT3-SH2 domain (P40763 whole entry, the tested form may be a part): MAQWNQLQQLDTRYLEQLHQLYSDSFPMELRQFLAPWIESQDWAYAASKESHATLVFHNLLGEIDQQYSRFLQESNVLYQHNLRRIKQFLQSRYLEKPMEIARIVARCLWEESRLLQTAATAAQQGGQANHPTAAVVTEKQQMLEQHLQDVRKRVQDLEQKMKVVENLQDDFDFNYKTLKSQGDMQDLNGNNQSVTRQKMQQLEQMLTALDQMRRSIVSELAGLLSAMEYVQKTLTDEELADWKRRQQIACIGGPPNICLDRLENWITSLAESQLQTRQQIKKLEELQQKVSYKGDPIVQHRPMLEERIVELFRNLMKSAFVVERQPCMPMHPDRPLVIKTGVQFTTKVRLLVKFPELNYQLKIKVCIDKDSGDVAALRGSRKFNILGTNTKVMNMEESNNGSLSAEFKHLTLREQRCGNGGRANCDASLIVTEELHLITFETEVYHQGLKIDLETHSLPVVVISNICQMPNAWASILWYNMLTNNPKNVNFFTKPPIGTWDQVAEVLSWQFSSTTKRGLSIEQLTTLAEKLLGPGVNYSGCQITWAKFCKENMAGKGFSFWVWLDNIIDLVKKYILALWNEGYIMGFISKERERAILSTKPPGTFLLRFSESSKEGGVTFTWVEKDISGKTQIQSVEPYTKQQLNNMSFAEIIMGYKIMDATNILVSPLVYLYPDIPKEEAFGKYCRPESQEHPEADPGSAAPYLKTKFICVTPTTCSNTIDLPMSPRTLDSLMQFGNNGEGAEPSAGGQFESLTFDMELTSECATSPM

[2] = target: T1, SH2-domain of STAT1 (Homo sapiens, UniProt P42224); test: STAT AlphaScreen-based assay (STAT1 selectivity); type: binding; details: for inhibition at 30 µM: read-out: STAT1 % inhibition ± SD at 30 μM, 30 μM; for IC50: read-out: STAT1 IC50 ±SD
T1 sequence (P42224 1-750): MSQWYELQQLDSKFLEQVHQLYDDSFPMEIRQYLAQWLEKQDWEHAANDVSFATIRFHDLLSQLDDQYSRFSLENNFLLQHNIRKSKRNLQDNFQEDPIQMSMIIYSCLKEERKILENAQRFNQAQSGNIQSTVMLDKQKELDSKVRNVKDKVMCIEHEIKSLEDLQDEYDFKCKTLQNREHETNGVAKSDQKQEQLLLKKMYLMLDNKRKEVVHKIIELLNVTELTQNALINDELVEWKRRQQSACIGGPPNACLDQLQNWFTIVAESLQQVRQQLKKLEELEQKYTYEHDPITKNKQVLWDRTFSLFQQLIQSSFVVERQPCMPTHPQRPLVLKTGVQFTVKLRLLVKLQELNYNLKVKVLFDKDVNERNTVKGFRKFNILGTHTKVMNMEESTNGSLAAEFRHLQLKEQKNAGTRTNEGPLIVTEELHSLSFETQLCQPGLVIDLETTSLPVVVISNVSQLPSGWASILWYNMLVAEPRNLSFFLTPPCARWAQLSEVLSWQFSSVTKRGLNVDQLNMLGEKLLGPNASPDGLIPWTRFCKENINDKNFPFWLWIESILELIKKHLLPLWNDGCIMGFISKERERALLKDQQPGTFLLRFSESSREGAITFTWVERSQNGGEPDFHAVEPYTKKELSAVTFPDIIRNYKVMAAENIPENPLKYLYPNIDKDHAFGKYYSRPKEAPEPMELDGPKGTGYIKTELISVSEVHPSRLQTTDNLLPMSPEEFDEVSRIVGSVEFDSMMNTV
Experimental: STAT3 inhibitory activity of the described compounds was tested by the AlphaScreen-based assay to evaluate the potential inhibition of the interaction between STAT3-SH2 domain and pTyr-containing peptides according to the previously reported procedure. For the most interesting compounds, selectivity tests versus STAT1 were performed.
The new sulfurated-drug hybrids, together with their parent compounds have been submitted to the AlphaScreen-based assay, to investigate their ability to bind STAT3 directly, through the evaluation of the inhibition of the binding of SH2-containing proteins to their correspondent phosphopeptides, the physiological ligands. […] Since AlphaScreen is a cell-free assay, not always there is a correspondence between the potency of STAT3 inhibition and cytotoxicity, probably due to not optimal physicochemical properties of the tested compounds, such as solubility and chemical stability in the culture medium and cell permeation.

[3] = system: NF-κB promoter activity in HCT-116 cells; test: Luciferase reported NF-κB promoter activity assay; type: cell-based; details: Homo sapiens, 2 h pre-treatment, TNF-α 10 ng/ml, NA = not active up to 100 μM, read-out: NF-κB promoter assay (HCT-116) IC50 ±SD
Experimental: To measure the NF-κB promoter activity, HCT-116 cells were seeded in 100 mm dish and transiently transfected with 6 μg of DNA (NF-κB plasmid, containing luciferase reporter gene[57] with turbofect reagent (Carlo Erba Reagents). After 24 h, cells were seeded in 48-well plates (40.000 cells per well). On the next day, cells were incubated with our compounds for 2 h (pre-treatment) and then TNF-α was added in every well at (10 ng/ml). After 5–6 h, luciferase activity was measured by using Neolite reagent (PerkinElmer Life Sciences, Waltham, MA) according to the manufacturer’s instructions.

[4] = system: HCT-116 cells; test: MTT assay, cytotoxicity on HCT-116; type: cell-based, human; details: human, HCT-116 cells, MTT assay, 48 h; NA = not active up to 100 μM; read-out: Cytotoxicity (HCT-116) IC50 ±SD
Experimental: Following the same protocol used for previous cytotoxicity assays by N. Ferri[55], cells were seeded in 48-well plate (40.000 cells/well) and, after 24 h, they were incubated with different concentrations of our compounds for 48 h.
The determination of the conversion of MTT (3-(4,5-dimethyl-2-thiazolyl)-2,5-diphenyl-2H-tetrazolium bromide) to formazan was determined by using a commercially available kit (Millipore, Billerica, MA), according to the manufacturer’s instructions.

[5] = system: STAT3 reporter activity in HeLa cells; test: STAT3 luciferase reporter gene assay; type: cell-based; details: Homo sapiens, 2 h pretreatment, oncostatin M 10 ng/ml 4 h, read-out: STAT3 reporter assay (HeLa) IC50 ±SD
Experimental: STAT3 reporter HeLa stable cell lines (Signosis Inc, Santa Clara, CA) were incubated in a 96-well microplate for 24 h. Cells were pretreated with test compounds for 2 h, and 10 ng/ml (w/v) of oncostatin M were applied and incubated for 4 h. Cells were washed with medium not supplemented with phenol red, and Steady-Glo® reagent (Promega, Madison, WI) was applied. After 15 min incubation, the signals were detected by ARVO Light 1420 (PerkinElmer Life Sciences, Waltham, MA). The relative signal intensity was calculated in each well as the ratio for the mean signal of vehicle.

Row | Compound | IC50 ([1]; AlphaScreen assay) [µM] | inhibition at 30 µM ([1]; AlphaScreen assay) [%] | inhibition at 30 µM [2] [%] | IC50 [2] [µM] | also measured
1 | CS(=O)(=O)SCCO [Compound 1, S-2-hydroxyethyl methanesulfonothioate] | > 30 | 11.6 | – | – | –
2 | CS(=O)(=O)SCCCCO [Compound 2, S-4-hydroxybutyl methanesulfonothioate] | 4.4 ± 0.3 | 88.4 ± 0.5 | 73.7 ± 1.4 | 8.6 ± 0.7 | –
3 | CS(=O)(=O)SCCN [Compound 3, S-2-aminoethyl methanesulfonothioate hydrobromide] | > 30 | -10.2 | – | > 3 | inhibition at 3 µM ([1]; AlphaScreen assay, 3 μM): 46.8%; inhibition at 3 µM [2]: 14.5%
4 | C=CCSSCCO [Compound 4, 2-(Allyldisulfanyl)ethanol] | 22.2 ± 3 | 55.7 ± 2.5 | 11.7 ± 6 | > 30 | –
5 | CS(=O)(=O)SCCCCC(=O)O [Compound 6, 5-(methanesulfonylthio)pentanoic acid] | 4.7 ± 1.1 | 72.5 ± 4.8 | – | > 3 | inhibition at 3 µM [2]: 8.6%
6 | COC(=O)CCCCSS(C)(=O)=O [Compound 7, Methyl 5-((methylsulfonyl)thio)pentanoate] | 1.9 ± 0.2 | 99.6 ± 0.1 | 70.8 ± 1.2 | 20.1 ± 0.4 | –
7 | CS(=O)(=O)CCCCC(=O)O [Compound 8, 5-(Methylsulfonyl)pentanoic acid] | > 30 | 3.8 ± 2.8 | – | – | STAT3 IC50 ±SD ([1]; AlphaScreen assay): loss of activity on STAT3; melting point: 111.3 to 112.8 °C
8 | C=CCSSCCC(=O)O [Compound 9, 3-(allyldisulfanyl)propionic acid] | > 30 | 43.9 ± 3.6 | – | – | –
9 | C=CCSSCCC(=O)OC [Compound 10, Methyl 3-(allyldisulfanyl)propanoate] | > 30 | 42 ± 4.7 | 11.2 | > 30 | –
10 | O=C(O)c1ccc(-c2cssc2=S)cc1 [Compound 11, 4-(3-thioxo-3H-1,2-dithiol-4-yl)benzoic acid] | > 100 | -1.2 ± 6 | – | – | IC50 [5]: > 100 µM
11 | CS(=O)(=O)SCCNC(=O)/C=C/c1ccc(O)c(O)c1 [Compound 22, (E)-S-2-(3-(3,4-dihydroxyphenyl)acrylamido)ethyl methanesulfonothioate] | 0.9 ± 0.1 | 99.8 ± 0.1 | -17.8 ± 0.3 | > 30 | –
12 | CS(=O)(=O)SCCOC(=O)C=Cc1ccccc1 [Compound 25, 2-(Methylsulfonylthio)ethyl cinnamate] | 0.5 | 100 | 100.3 ± 0.2 | 3.6 ± 0.4 | IC50 [5]: 72.5 ± 4.4 µM; IC50 at 48 h [4]: 95.2 ± 8.9 µM; melting point: 76.8 to 78.5 °C
13 | CS(=O)(=O)SCCOC(=O)/C=C/c1ccc(Cl)c(Cl)c1 [Compound 26, (E)-2-(methylsulfonylthio)ethyl 3-(3,4-dichlorophenyl)acrylate] | 0.3 | 100 ± 0.1 | 104 ± 1.7 | 1.9 ± 0.2 | melting point: 69.6 to 71.2 °C
14 | COc1ccc(/C=C/C(=O)OCCSS(C)(=O)=O)cc1OC [Compound 27, (E)-2-((methylsulfonyl)thio)ethyl 3-(3,4-dimethoxyphenyl)acrylate] | 0.3 | 99.7 ± 0.1 | 68.9 ± 10.2 | 20.9 ± 4.9 | fold more selective for STAT3 versus STAT1 ([1]; in comparison to 15 and 26): 10 fold; melting point: 99.8 to 102.7 °C
15 | COCCOCOc1ccc(/C=C/C(=O)OCCSS(C)(=O)=O)cc1OCOCCOC [Compound 28, (E)-2-(methylsulfonylthio)ethyl 3-(3,4-bis((2-methoxyethoxy)methoxy)phenyl)acrylate] | 0.6 ± 0.1 | 100 ± 0.1 | 98.4 ± 0.9 | 6.3 ± 0.5 | –
16 | COCCOCOc1ccc(/C=C/C(=O)NCCSS(C)(=O)=O)cc1OCOCCOC [Compound 29, (E)-S-2-(3-(3,4-bis((2-methoxyethoxy)methoxy)phenyl)acrylamido)ethyl methanesulfonothioate] | 1.1 | 100.1 ± 0.1 | 63.3 ± 0.5 | 19.5 ± 0.3 | melting point: 62.3 to 64.6 °C

Further lines, with some results ahead:

Row | IC50 ([1]; AlphaScreen assay) [µM] | inhibition at 30 µM ([1]; AlphaScreen assay) [%] | inhibition at 30 µM [2] [%] | IC50 [2] [µM] | Compound | also measured
17 | > 30 | 43.7 | – | – | Oc1ccc(-c2cc(=S)ss2)cc1 [Compound 5, 5-(4-hydroxyphenyl)-1,2-dithiol-3-thione] | IC50 [3]: 36.7 ± 11.4 µM; IC50 at 48 h [4]: 71.2 ± 15 µM
18 | > 30 | 0.2 ± 8.2 | – | – | COc1cc(/C=C/C(=O)O)ccc1O [Compound 12, ferulic acid, reference compound] | –
19 | > 30 | 2.1 ± 2.3 | – | – | COC(=O)/C=C/c1ccc(O)c(OC)c1 [Compound 13] | –
20 | 0.9 | 110.1 ± 0.2 | 110.5 ± 0.6 | 7 ± 0.7 | COc1cc(/C=C/C(=O)OCCSS(C)(=O)=O)ccc1O [Compound 14, (E)-2-(methylsulfonylthio)ethyl 3-(4-hydroxy-3-methoxyphenyl)acrylate] | IC50 [5]: 65.4 ± 1 µM; IC50 [3]: 116 ± 2.9 µM; IC50 at 48 h [4]: 50.4 ± 5.9 µM
21 | 0.3 | 100 ± 0.1 | 86 ± 6.7 | 1.8 ± 0.4 | COc1cc(/C=C/C(=O)OCCCCSS(C)(=O)=O)ccc1O [Compound 15, (E)-4-(methylsulfonylthio)butyl 3-(4-hydroxy-3-methoxyphenyl)acrylate] | IC50 [5]: 57.5 ± 1.1 µM; IC50 [3]: 94 ± 4.6 µM; IC50 at 48 h [4]: 64.4 ± 9.1 µM
22 | 1.8 ± 0.5 | 107.8 ± 0.1 | 4.1 ± 5.4 | > 30 | COc1cc(/C=C/C(=O)NCCSS(C)(=O)=O)ccc1O [Compound 16, (E)-S-2-(3-(4-hydroxy-3-methoxyphenyl)acrylamido)ethyl methanesulfonothioate] | –
23 | 7.8 ± 0.6 | 67.9 ± 0.8 | 12 ± 4.7 | > 30 | C=CCSSCCOC(=O)/C=C/c1ccc(O)c(OC)c1 [Compound 17, (E)-2-(allyldisulfanyl)ethyl 3-(4-hydroxy-3-methoxyphenyl)acrylate] | –
24 | 28.5 ± 0.7 | 51.3 ± 0.7 | 44.2 ± 1.9 | > 30 | COc1cc(/C=C/C(=O)Oc2ccc(-c3cc(=S)ss3)cc2)ccc1O [Compound 18, (E)-4-(3-thioxo-3H-1,2-dithiol-5-yl)phenyl 3-(4-hydroxy-3-methoxyphenyl)acrylate] | –
25 | > 30 | 12.8 ± 1.1 | – | – | COC(=O)/C=C/c1ccc(O)c(O)c1 [Compound 20, (E)-methyl 3-(3,4-dihydroxyphenyl)acrylate] | IC50 at 48 h [4]: 90.8 µM
